According to paper PMC12884754, “A GLUTAMATE CYSTEINE LIGASE Gene StGSH1 Regulated by StERF10 Enhanced Glutathione Accumulation and Adaptation to Low Phosphorus Stress in Potato” (Advanced Science, 2025):

How the values were obtained:
StGSH1 (monomer) = biological target: T1, StGSH1 (monomer) (Solanum tuberosum, UniProt M1AWB9); test: coupled pyruvate kinase/lactate dehydrogenase assay of ADP formation, A340; type: biochemical; details: standard reaction: pH 8.0, 100 mM Tris, 150 mM KCl, 20 mM MgCl2, 10 mM L-cysteine, 20 mM L-glutamate, read-out: ATP
T1 construct: gene LOC102600891; pET32a, E. coli BL21(DE3); His tag removed by TEV; monomer separated on Mono Q
T1 sequence (M1AWB9 74-523): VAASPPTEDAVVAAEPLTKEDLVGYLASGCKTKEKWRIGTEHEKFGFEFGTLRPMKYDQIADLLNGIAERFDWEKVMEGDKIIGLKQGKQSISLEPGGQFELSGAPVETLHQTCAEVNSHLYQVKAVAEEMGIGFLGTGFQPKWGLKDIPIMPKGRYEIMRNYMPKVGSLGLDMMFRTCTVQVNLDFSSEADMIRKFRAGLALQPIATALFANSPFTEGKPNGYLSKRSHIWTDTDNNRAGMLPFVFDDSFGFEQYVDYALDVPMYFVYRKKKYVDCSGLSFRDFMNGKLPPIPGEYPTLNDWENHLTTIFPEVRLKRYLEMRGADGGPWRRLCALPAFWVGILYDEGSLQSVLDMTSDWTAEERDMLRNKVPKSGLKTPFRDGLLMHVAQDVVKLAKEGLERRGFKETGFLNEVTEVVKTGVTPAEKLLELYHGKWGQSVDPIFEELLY
From the text: coupled pyruvate kinase/lactate dehydrogenase assay of ADP formation, A340 on StGSH1 (monomer)

StGSH1 (dimer) = biological target: T2, StGSH1 (dimer) (Solanum tuberosum, UniProt M1AWB9); test: as above; type: biochemical; details: standard reaction: pH 8.0, 100 mM Tris, 150 mM KCl, 20 mM MgCl2, 10 mM L-cysteine, 20 mM L-glutamate; homo-dimer; read-out: ATP
T2 construct: gene LOC102600891; pET32a, E. coli BL21(DE3); His tag removed by TEV; homodimer separated on Mono Q
T2 sequence (M1AWB9 74-523): T1 sequence (M1AWB9 74-523)
From the text: coupled pyruvate kinase/lactate dehydrogenase assay of ADP formation, A340 on StGSH1 (dimer)

Km (StGSH1 (monomer)): 2.41 ± 0.36 mM | Km (StGSH1 (dimer)): 1 ± 0.3 mM
Compound: Nc1ncnc2c1ncn2[C@@H]1O[C@H](COP(=O)(O)OP(=O)(O)OP(=O)(O)O)[C@@H](O)[C@H]1O [ATP]
